#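 The concentration for 50% growth inhibition is given as GI50. Definition used: TGI = concentration required for complete inhibition of growth.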
# Assays:
# Assay in all cases: DTP human tumour cell line panel, 384-well format
# 786-0 renal = tested on: 786-0 renal
# A498 renal = tested on: A498 renal
# A549 NSCLC = tested on: A549 NSCLC
# ACHN renal = tested on: ACHN renal
# BT-549 breast = tested on: BT-549 breast
# CAKI-1 renal = tested on: CAKI-1 renal
# CCRF-CEM leukemia = tested on: CCRF-CEM leukemia
# COLO 205 colon = tested on: COLO 205 colon
# DU-145 prostate = tested on: DU-145 prostate
# EKVX NSCLC = tested on: EKVX NSCLC
# HCC-2998 colon = tested on: HCC-2998 colon
# HCT-116 colon = tested on: HCT-116 colon
# HCT-15 colon = tested on: HCT-15 colon
# HL-60(TB) leukemia = tested on: HL-60(TB) leukemia
# HOP-62 NSCLC = tested on: HOP-62 NSCLC
# HOP-92 NSCLC = tested on: HOP-92 NSCLC
# HS 578T breast = tested on: HS 578T breast
# HT29 colon = tested on: HT29 colon
# IGROV1 ovarian = tested on: IGROV1 ovarian
# K-562 leukemia = tested on: K-562 leukemia
# KM12 colon = tested on: KM12 colon
# LOX IMVI melanoma = tested on: LOX IMVI melanoma
# M14 melanoma = tested on: M14 melanoma
# MALME-3M melanoma = tested on: MALME-3M melanoma
# MCF7 breast = tested on: MCF7 breast
# MDA-MB-231 breast = tested on: MDA-MB-231 breast
# MDA-MB-435 melanoma = tested on: MDA-MB-435 melanoma
# MDA-MB-468 breast = tested on: MDA-MB-468 breast
# MOLT-4 leukemia = tested on: MOLT-4 leukemia
# NCI-H226 lung = tested on: NCI-H226 lung
# NCI-H23 lung = tested on: NCI-H23 lung
# NCI-H322M lung = tested on: NCI-H322M lung
# NCI-H460 NSCLC = tested on: NCI-H460 NSCLC
# NCI-H522 lung = tested on: NCI-H522 lung
# NCI/ADR-RES ovarian = tested on: NCI/ADR-RES ovarian
# OVCAR-3 ovarian = tested on: OVCAR-3 ovarian
# OVCAR-4 ovarian = tested on: OVCAR-4 ovarian
# OVCAR-5 ovarian = tested on: OVCAR-5 ovarian
# OVCAR-8 ovarian = tested on: OVCAR-8 ovarian
# PC-3 prostate = tested on: PC-3 prostate
# RPMI-8226 leukemia = tested on: RPMI-8226 leukemia
# RXF 393 renal = tested on: RXF 393 renal
# SF-268 CNS = tested on: SF-268 CNS
# SF-295 CNS = tested on: SF-295 CNS
# SF-539 CNS = tested on: SF-539 CNS
# SK-MEL-2 melanoma = tested on: SK-MEL-2 melanoma
# SK-MEL-28 melanoma = tested on: SK-MEL-28 melanoma
# SK-MEL-5 melanoma = tested on: SK-MEL-5 melanoma
# SK-OV-3 ovarian = tested on: SK-OV-3 ovarian
# SN12C renal = tested on: SN12C renal
# SNB-19 CNS = tested on: SNB-19 CNS
# SNB-75 CNS = tested on: SNB-75 CNS
# SR leukemia = tested on: SR leukemia
# SW-620 colon = tested on: SW-620 colon
# T-47D breast = tested on: T-47D breast
# TK-10 renal = tested on: TK-10 renal
# U251 glioblastoma = tested on: U251 glioblastoma
# UACC-257 melanoma = tested on: UACC-257 melanoma
# UACC-62 melanoma = tested on: UACC-62 melanoma
smiles,measurement,setting,value
Cc1cc(-c2ncc(CC(=O)Nc3ccc(-c4cnccn4)cn3)cc2C)ccn1,GI50,786-0 renal,59.5 µM
same,TGI,786-0 renal,> 100 µM
same,GI50,A498 renal,68.8 µM
same,TGI,A498 renal,> 100 µM
same,GI50,A549 NSCLC,> 70.5 µM
same,TGI,A549 NSCLC,> 100 µM
same,GI50,ACHN renal,64.4 µM
same,TGI,ACHN renal,> 100 µM
same,GI50,BT-549 breast,32.5 µM
same,TGI,BT-549 breast,> 100 µM
same,GI50,CAKI-1 renal,49.3 µM
same,TGI,CAKI-1 renal,> 100 µM
same,GI50,CCRF-CEM leukemia,12.2 µM
same,TGI,CCRF-CEM leukemia,49 µM
same,GI50,COLO 205 colon,> 93.6 µM
same,TGI,COLO 205 colon,> 100 µM
same,GI50,DU-145 prostate,> 100 µM
same,TGI,DU-145 prostate,> 100 µM
same,GI50,EKVX NSCLC,21.8 µM
same,TGI,EKVX NSCLC,> 100 µM
same,GI50,HCC-2998 colon,> 88.8 µM
same,TGI,HCC-2998 colon,> 100 µM
same,GI50,HCT-116 colon,29 µM
same,TGI,HCT-116 colon,> 100 µM
same,GI50,HCT-15 colon,57.1 µM
same,TGI,HCT-15 colon,> 100 µM
same,GI50,HL-60(TB) leukemia,6.52 µM
same,TGI,HL-60(TB) leukemia,24.1 µM
same,GI50,HOP-62 NSCLC,39.7 µM
same,TGI,HOP-62 NSCLC,> 100 µM
same,GI50,HOP-92 NSCLC,> 100 µM
same,TGI,HOP-92 NSCLC,> 100 µM
same,GI50,HS 578T breast,> 100 µM
same,TGI,HS 578T breast,> 100 µM
same,GI50,HT29 colon,74.5 µM
same,TGI,HT29 colon,> 100 µM
same,GI50,IGROV1 ovarian,56.3 µM
same,TGI,IGROV1 ovarian,> 100 µM
same,GI50,K-562 leukemia,10.4 µM
same,TGI,K-562 leukemia,> 100 µM
same,GI50,KM12 colon,> 82.9 µM
same,TGI,KM12 colon,> 100 µM
same,GI50,LOX IMVI melanoma,28.4 µM
same,TGI,LOX IMVI melanoma,> 100 µM
same,GI50,M14 melanoma,> 100 µM
same,TGI,M14 melanoma,> 100 µM
same,GI50,MALME-3M melanoma,> 100 µM
same,TGI,MALME-3M melanoma,> 100 µM
same,GI50,MCF7 breast,27.3 µM
same,TGI,MCF7 breast,> 100 µM
same,GI50,MDA-MB-231 breast,> 100 µM
same,TGI,MDA-MB-231 breast,> 100 µM
same,GI50,MDA-MB-435 melanoma,38.6 µM
same,TGI,MDA-MB-435 melanoma,> 100 µM
same,GI50,MDA-MB-468 breast,3.43 µM
same,TGI,MDA-MB-468 breast,33.1 µM
same,GI50,MOLT-4 leukemia,12.9 µM
same,TGI,MOLT-4 leukemia,26.2 µM
same,GI50,NCI-H226 lung,61.6 µM
same,TGI,NCI-H226 lung,> 100 µM
same,GI50,NCI-H23 lung,20.5 µM
same,TGI,NCI-H23 lung,> 100 µM
same,GI50,NCI-H322M lung,43 µM
same,TGI,NCI-H322M lung,> 100 µM
same,GI50,NCI-H460 NSCLC,28.6 µM
same,TGI,NCI-H460 NSCLC,> 100 µM
same,GI50,NCI-H522 lung,31.5 µM
same,TGI,NCI-H522 lung,> 100 µM
same,GI50,NCI/ADR-RES ovarian,14.4 µM
same,TGI,NCI/ADR-RES ovarian,47.3 µM
same,GI50,OVCAR-3 ovarian,> 86.3 µM
same,TGI,OVCAR-3 ovarian,> 100 µM
same,GI50,OVCAR-4 ovarian,25.5 µM
same,TGI,OVCAR-4 ovarian,> 100 µM
same,GI50,OVCAR-5 ovarian,> 100 µM
same,TGI,OVCAR-5 ovarian,> 100 µM
same,GI50,OVCAR-8 ovarian,30.3 µM
same,TGI,OVCAR-8 ovarian,> 100 µM
same,GI50,PC-3 prostate,51.1 µM
same,TGI,PC-3 prostate,> 100 µM
same,GI50,RPMI-8226 leukemia,13.8 µM
same,TGI,RPMI-8226 leukemia,34.7 µM
same,GI50,RXF 393 renal,21.3 µM
same,TGI,RXF 393 renal,> 100 µM
same,GI50,SF-268 CNS,> 100 µM
same,TGI,SF-268 CNS,> 100 µM
same,GI50,SF-295 CNS,49.3 µM
same,TGI,SF-295 CNS,> 100 µM
same,GI50,SF-539 CNS,> 57.7 µM
same,TGI,SF-539 CNS,> 100 µM
same,GI50,SK-MEL-2 melanoma,42.6 µM
same,TGI,SK-MEL-2 melanoma,> 100 µM
same,GI50,SK-MEL-28 melanoma,> 100 µM
same,TGI,SK-MEL-28 melanoma,> 100 µM
same,GI50,SK-MEL-5 melanoma,11.6 µM
same,TGI,SK-MEL-5 melanoma,27.2 µM
same,GI50,SK-OV-3 ovarian,> 66 µM
same,TGI,SK-OV-3 ovarian,> 100 µM
same,GI50,SN12C renal,39.2 µM
same,TGI,SN12C renal,> 100 µM
same,GI50,SNB-19 CNS,64 µM
same,TGI,SNB-19 CNS,> 100 µM
same,GI50,SNB-75 CNS,> 58.8 µM
same,TGI,SNB-75 CNS,> 100 µM
same,GI50,SR leukemia,3.81 µM
same,TGI,SR leukemia,27.9 µM
same,GI50,SW-620 colon,88.6 µM
same,TGI,SW-620 colon,> 100 µM
same,GI50,T-47D breast,9.51 µM
same,TGI,T-47D breast,> 52.8 µM
same,GI50,TK-10 renal,65.7 µM
same,TGI,TK-10 renal,> 100 µM
same,GI50,U251 glioblastoma,48.6 µM
same,TGI,U251 glioblastoma,> 100 µM
same,GI50,UACC-257 melanoma,27.8 µM
same,TGI,UACC-257 melanoma,> 100 µM
same,GI50,UACC-62 melanoma,56.1 µM
same,TGI,UACC-62 melanoma,> 100 µM

# Reference: PubChem BioAssay (NCI)
